From patent US4684664A, “Derivatives of β-(4-isocyano-1,2,3,4-diepoxycyclopentyl) acrylic acid” (Kureha Kagaku Kogyo Kabushiki Kaisha, priority 1984, dated 1987)
In brackets after ≈: the same amount, converted by molar mass.

Tests used:
Format in all cases: cell-based
Enterobacter cloacae 963 = test: Antibacterial activity, agar-dilution MIC, organism No. 24; conditions: Enterobacter cloacae, 963; Organism No. 24, bouillon-agar; read-out: Minimum Inhibitory Concentration
In short: (§1)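 Minimum inhibitory concentration determined on solid bouillon agar by the agar-dilution technique, with values stated as μg/ml.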

[1] = tested on: Salmonella typhimurium IID 971; test: Antibacterial activity, agar-dilution MIC, organism No. 8; conditions: Salmonella enterica; Organism No. 8, bouillon-agar; read-out: Minimum Inhibitory Concentration
In short: as §1

[2] = tested on: Salmonella shottmuelleri 8006; test: Antibacterial activity, agar-dilution MIC, organism No. 11; conditions: Salmonella, 8006; Organism No. 11, bouillon-agar; read-out: Minimum Inhibitory Concentration
In short: as §1

[3] = tested on: Bacillus subtilis ATCC 6633; test: Antibacterial activity, agar-dilution MIC, organism No. 14; conditions: Bacillus subtilis, ATCC6633; Organism No. 14, bouillon-agar; read-out: Minimum Inhibitory Concentration
In short: as §1

[4] = tested on: Proteus mirabilis IFO 3849; test: Antibacterial activity, agar-dilution MIC, organism No. 19; conditions: Proteus mirabilis, IFO3849; Organism No. 19, bouillon-agar; read-out: Minimum Inhibitory Concentration
In short: as §1

[5] = tested on: Pseudomonas aeruginosa PAO 1; test: Antibacterial activity, agar-dilution MIC, organism No. 17; conditions: Pseudomonas aeruginosa, PAO1; Organism No. 17, bouillon-agar; read-out: Minimum Inhibitory Concentration
In short: as §1

[6] = tested on: Escherichia coli NIHJ-JC-2; test: Antibacterial activity, agar-dilution MIC, organism No. 5; conditions: Escherichia coli, NIHJJC2; Organism No. 5, bouillon-agar; read-out: Minimum Inhibitory Concentration
In short: as §1

[7] = tested on: Micrococcus luteus ATCC 9341; test: Antibacterial activity, agar-dilution MIC, organism No. 25; conditions: Micrococcus luteus, ATCC9341; Organism No. 25, bouillon-agar; read-out: Minimum Inhibitory Concentration
In short: as §1

Salmonella typhi 901 = test: Antibacterial activity, agar-dilution MIC, organism No. 9; conditions: Salmonella enterica, TYPHI, read-out: Minimum Inhibitory Concentration
In short: as §1

[8] = tested on: Klebsiella pneumoniae PCI-602; test: Antibacterial activity, agar-dilution MIC, organism No. 7; conditions: Klebsiella pneumoniae, PCI602; Organism No. 7, bouillon-agar; read-out: Minimum Inhibitory Concentration
In short: as §1

[9] = tested on: Salmonella enteritidis G 14; test: Antibacterial activity, agar-dilution MIC, organism No. 12; conditions: Salmonella enterica, ENTERITIDIS; Organism No. 12, bouillon-agar; read-out: Minimum Inhibitory Concentration
In short: as §1

[10] = tested on: Streptococcus pyogenes Cook; test: Antibacterial activity, agar-dilution MIC, organism No. 4; conditions: Streptococcus pyogenes; Organism No. 4, bouillon-agar; read-out: Minimum Inhibitory Concentration
In short: as §1

[11] = tested on: Serratia marcescens IAM 1184; test: Antibacterial activity, agar-dilution MIC, organism No. 13; conditions: Serratia marcescens, IAM1184; Organism No. 13, bouillon-agar; read-out: Minimum Inhibitory Concentration
In short: as §1

[12] = tested on: Enterobacter aerogenes ATCC 13048; test: Antibacterial activity, agar-dilution MIC, organism No. 23; conditions: Klebsiella aerogenes, ATCC13048; Organism No. 23, bouillon-agar; read-out: Minimum Inhibitory Concentration
In short: as §1

[13] = tested on: Streptococcus faecium IFO 3826; test: Antibacterial activity, agar-dilution MIC, organism No. 27; conditions: Enterococcus faecium, IFO3826; Organism No. 27, bouillon-agar; read-out: Minimum Inhibitory Concentration
In short: as §1

[14] = tested on: Staphylococcus aureus Terajima; test: Antibacterial activity, agar-dilution MIC, organism No. 2; conditions: Staphylococcus aureus; Organism No. 2, bouillon-agar; read-out: Minimum Inhibitory Concentration
In short: as §1

[15] = tested on: Salmonella paratyphi-A 1015; test: Antibacterial activity, agar-dilution MIC, organism No. 10; conditions: Salmonella enterica, PARATYPHI, read-out: Minimum Inhibitory Concentration
In short: as §1

[16] = tested on: Proteus rettgeri IFO 3850; test: Antibacterial activity, agar-dilution MIC, organism No. 22; conditions: Providencia rettgeri, IFO3850; Organism No. 22, bouillon-agar; read-out: Minimum Inhibitory Concentration
In short: as §1

[17] = tested on: Staphylococcus aureus FDA 209PJc-1; test: Antibacterial activity, agar-dilution MIC, organism No. 1; conditions: Staphylococcus aureus, FDA209PJC1; Organism No. 1, bouillon-agar; read-out: Minimum Inhibitory Concentration
In short: as §1

[18] = tested on: Proteus morganii IFO 3848; test: Antibacterial activity, agar-dilution MIC, organism No. 18; conditions: Morganella morganii, IFO3848; Organism No. 18, bouillon-agar; read-out: Minimum Inhibitory Concentration
In short: as §1

[19] = tested on: Pseudomonas aeruginosa IFO 3445; test: Antibacterial activity, agar-dilution MIC, organism No. 15; conditions: Pseudomonas aeruginosa, IFO3445; Organism No. 15, bouillon-agar; read-out: Minimum Inhibitory Concentration
In short: as §1

[20] = tested on: Streptococcus pyogenes IFO 3340; test: Antibacterial activity, agar-dilution MIC, organism No. 26; conditions: Streptococcus pyogenes, IFO3340; Organism No. 26, bouillon-agar; read-out: Minimum Inhibitory Concentration
In short: as §1

[21] = tested on: Escherichia coli K12 C600 IAM 1264; test: Antibacterial activity, agar-dilution MIC, organism No. 6; conditions: Escherichia coli, IAM1264; Organism No. 6, bouillon-agar; read-out: Minimum Inhibitory Concentration
In short: as §1

Proteus vulgaris OX-19 = test: Antibacterial activity, agar-dilution MIC, organism No. 20; conditions: Proteus vulgaris, OX19; Organism No. 20, bouillon-agar; read-out: Minimum Inhibitory Concentration
In short: as §1

Proteus vulgaris HX-19 = test: Antibacterial activity, agar-dilution MIC, organism No. 21; conditions: Proteus vulgaris, HX19; Organism No. 21, bouillon-agar; read-out: Minimum Inhibitory Concentration
In short: as §1

[22] = tested on: Candida albicans IAM 4905; test: Antifungal activity, agar-dilution MIC, organism No. 29; conditions: Candida albicans, IAM4905; Organism No. 29, bouillon-agar; read-out: Minimum Inhibitory Concentration
In short: as §1

[23] = tested on: Mycoplasma pneumoniae IID817; test: Antimycoplasmal activity, MIC by phenol red colour change, organism No. 28; conditions: Mycoplasma, IID817; Organism No. 28, PPLO broth + 1% glucose, 37° C.; read-out: Minimum Inhibitory Concentration (MIC)
Description: Mycoplasma pneumoniae IID817 was used as the test microorganism in a culture medium prepared by adding 1% of glucose to "PPLO broth (manufactured by Difco Co.) liquid culture medium" at 37° C. with phenol red as an indicator, thereby culturing the test microorganism.

[24] = tested on: Pseudomonas aeruginosa NCTC 10490; test: Antibacterial activity, agar-dilution MIC, organism No. 16; conditions: Pseudomonas aeruginosa, NCTC10490; Organism No. 16, bouillon-agar; read-out: Minimum Inhibitory Concentration
In short: as §1

[25] = tested on: Aspergillus niger IFO 6342; test: Antifungal activity, agar-dilution MIC, organism No. 30; conditions: Aspergillus niger, IFO6342; Organism No. 30, bouillon-agar; read-out: Minimum Inhibitory Concentration
In short: as §1

[26] = tested on: Staphylococcus aureus MS 353; test: Antibacterial activity, agar-dilution MIC, organism No. 3; conditions: Staphylococcus aureus, MS353; Organism No. 3, bouillon-agar; read-out: Minimum Inhibitory Concentration
In short: as §1

Row | Structure (SMILES) | MIC (Enterobacter cloacae 963) [µg/mL] | MIC [1] [µg/mL] | MIC [2] [µg/mL] | MIC [3] [µg/mL] | MIC [4] [µg/mL] | MIC [5] [µg/mL] | MIC [6] [µg/mL] | MIC [7] [µg/mL] | MIC (Salmonella typhi 901) [µg/mL] | MIC [8] [µg/mL] | MIC [9] [µg/mL] | MIC [10] [µg/mL] | MIC [11] [µg/mL] | MIC [12] [µg/mL] | MIC [13] [µg/mL] | MIC [14] [µg/mL] | MIC [15] [µg/mL] | MIC [16] [µg/mL] | MIC [17] [µg/mL] | MIC [18] [µg/mL] | also measured
1 | [C-]#[N+]C12CC3(/C=C/C(=O)OCc4cc([N+](=O)[O-])ccc4OC)OC3C1O2 (stereo not drawn) [Compound No. 16] | > 200 | > 200 | 50 (≈ 140 µM) | 25 (≈ 69.8 µM) | > 200 | > 200 | 200 (≈ 558 µM) | 0.1 (≈ 0.279 µM) | 50 (≈ 140 µM) | 50 (≈ 140 µM) | > 200 | 200 (≈ 558 µM) | 100 (≈ 279 µM) | > 200 | 6.25 (≈ 17.4 µM) | 6.25 (≈ 17.4 µM) | 50 (≈ 140 µM) | 100 (≈ 279 µM) | 6.25 (≈ 17.4 µM) | 12.5 (≈ 34.9 µM) | MIC [19]: > 200 µg/mL; MIC [20]: 200 µg/mL (≈ 558 µM); MIC [21]: 200 µg/mL (≈ 558 µM); MIC (Proteus vulgaris OX-19): 50 µg/mL (≈ 140 µM); MIC (Proteus vulgaris HX-19): 3.13 µg/mL (≈ 8.74 µM); MIC [22]: 3.13 µg/mL (≈ 8.74 µM); MIC [23]: 6.25 µg/mL; MIC [24]: > 200 µg/mL; MIC [25]: 6.25 µg/mL (≈ 17.4 µM); MIC [26]: 6.25 µg/mL (≈ 17.4 µM)
2 | [C-]#[N+]C12CC3(/C=C/C(=O)Nc4cccc(C(=O)O)c4)OC3C1O2 (stereo not drawn) [compound 52] | > 200 | 100 (≈ 320 µM) | 50 (≈ 160 µM) | 200 (≈ 640 µM) | > 200 | > 200 | 200 (≈ 640 µM) | 25 (≈ 80.1 µM) | 50 (≈ 160 µM) | 200 (≈ 640 µM) | 50 (≈ 160 µM) | 50 (≈ 160 µM) | > 200 | > 200 | 50 (≈ 160 µM) | 50 (≈ 160 µM) | 50 (≈ 160 µM) | > 200 | 12 (≈ 38.4 µM) | 12.5 (≈ 40 µM) | MIC [19]: > 200 µg/mL; MIC [20]: 100 µg/mL (≈ 320 µM); MIC [21]: 200 µg/mL (≈ 640 µM); MIC (Proteus vulgaris OX-19): 50 µg/mL (≈ 160 µM); MIC (Proteus vulgaris HX-19): 50 µg/mL (≈ 160 µM); MIC [22]: 100 µg/mL (≈ 320 µM); MIC [23]: < 0.2 µg/mL; MIC [24]: > 200 µg/mL; MIC [25]: 100 µg/mL (≈ 320 µM); MIC [26]: 25 µg/mL (≈ 80.1 µM)
3 | [C-]#[N+]C12CC3(/C=C/C(=O)Nc4cccc(OC)c4)OC3C1O2 (stereo not drawn) [compound 54] | > 200 | 6.25 (≈ 21 µM) | 0.39 (≈ 1.31 µM) | 3.13 (≈ 10.5 µM) | > 200 | > 200 | 50 (≈ 168 µM) | 0.05 (≈ 0.168 µM) | 3.13 (≈ 10.5 µM) | 0.2 (≈ 0.67 µM) | 3.13 (≈ 10.5 µM) | 25 (≈ 83.8 µM) | 100 (≈ 335 µM) | > 200 | 25 (≈ 83.8 µM) | 1.56 (≈ 5.23 µM) | 0.78 (≈ 2.61 µM) | 6.25 (≈ 21 µM) | 0.39 (≈ 1.31 µM) | 0.39 (≈ 1.31 µM) | MIC [19]: > 200 µg/mL; MIC [20]: 0.39 µg/mL (≈ 1.31 µM); MIC [21]: 50 µg/mL (≈ 168 µM); MIC (Proteus vulgaris OX-19): 0.39 µg/mL (≈ 1.31 µM); MIC (Proteus vulgaris HX-19): 0.3 µg/mL (≈ 1.01 µM); MIC [22]: 0.79 µg/mL (≈ 2.65 µM); MIC [23]: < 0.2 µg/mL; MIC [24]: > 200 µg/mL; MIC [25]: 1.56 µg/mL (≈ 5.23 µM); MIC [26]: 0.2 µg/mL (≈ 0.67 µM)
